Results reported in patent publication US10328077B2 (CELGENE CORPORATION, priority 2016, dated 2019).

Tests used:
[1] = system: CD11b expression in THP-1 (AML) cells; assay: LSD-1 CD11b cellular assay (flow cytometry); conditions: Homo sapiens, THP-1, 96 h, read-out: THP-1 IC50
[2] = biological target: human LSD-1 (Homo sapiens (Human), UniProt O60341); assay: In vitro enzyme inhibition assay LSD-1 (TR-FRET); type: biochemical; conditions: TR-FRET, H3K4me1-biotin labeled peptide
From the text: This assay determines the ability of a test compound to inhibit LSD-1 demethylase activity.
The enzymatic assay of LSD-1 activity is based on Time Resolved-Fluorescence Resonance Energy Transfer (TR-FRET) detection.

| Structure (SMILES) | IC50 [1] | IC50 [2] |
| --- | --- | --- |
| Cn1c(N2CCC(N)CC2)nc(-c2ccc(C#N)cc2)c(-c2ccc(C(N)=O)c(F)c2)c1=O [Example 41, 4-[2-(4-aminopiperidyl)-6-(4-cyanophenyl)-3-methyl-4-oxo(3-hydropyrimidin-5-yl)]-2-fluorobenzamide] | 100 to 1000 nM | < 100 nM |
| COc1ccc(-c2c(-c3ccc(C#N)c(F)c3)nc(N3CC[C@H](N)C3)n(C)c2=O)cc1F [Example 29, 4-[2-((3S)-3-amino-pyrrolidin-1-yl)-5-(3-fluoro-4-methoxy-phenyl)-1-methyl-6-oxo-1,6-dihydro-pyrimidin-4-yl]-2-fluoro-benzonitrile] | 100 to 1000 nM | < 100 nM |
| CCc1ccc(-c2c(-c3ccc(C#N)cc3)nc(N3CCC(N)CC3)n(C)c2=O)cn1 [Example 10, 4-[2-(4-amino-piperidin-1-yl)-5-(6-ethyl-pyridin-3-yl)-1-methyl-6-oxo-1,6-dihydro-pyrimidin-4-yl]-benzonitrile] | 100 to 1000 nM | < 100 nM |
| COc1ccc(-c2c(-c3ccc(C#N)c(F)c3)nc(N3CC(N)C3)n(C)c2=O)cc1 [Example 64, 4-[2-(3-amino-azetidin-1-yl)-5-(4-methoxy-phenyl)-1-methyl-6-oxo-1,6-dihydro-pyrimidin-4-yl]-2-fluoro-benzonitrile] | 100 to 1000 nM | < 100 nM |
| COc1ccc(-c2c(-c3ccc(C#N)c(F)c3)nc(N3CCC[C@@H](N)C3)n(C)c2=O)cc1 [Example 30, 4-[2-((3R)-3-aminopiperidyl)-5-(4-methoxyphenyl)-1-methyl-6-oxohydro-pyrimidin-4-yl]-2-fluorobenzenecarbonitrile] | < 100 nM | < 100 nM |
| CNc1ccc(-c2c(-c3ccc(C#N)c(F)c3)nc(N3CCC(N)CC3)n(C)c2=O)cc1F [Example 91, 4-[2-(4-aminopiperidin-1-yl)-5-[3-fluoro-4-(methylamino)phenyl]-1-methyl-6-oxopyrimidin-4-yl]-2-fluorobenzonitrile] | < 100 nM | < 100 nM |
| Cn1c(N2CCC(N)CC2)nc(-c2ccc(C#N)c(F)c2)c(-c2cc(F)cc(F)c2)c1=O [Example 103, 4-[2-(4-aminopiperidin-1-yl)-5-(3,5-difluorophenyl)-1-methyl-6-oxopyrimidin-4-yl]-2-fluorobenzonitrile] | < 100 nM | < 100 nM |
| COCCOc1ccc(-c2c(-c3ccc(C#N)c(F)c3)nc(N3CCC(N)CC3)n(C)c2=O)cc1 [Example 98, 4-[2-(4-aminopiperidin-1-yl)-5-[4-(2-methoxyethoxy)phenyl]-1-methyl-6-oxopyrimidin-4-yl]-2-fluorobenzonitrile] | < 100 nM | < 100 nM |
| COc1ccc(-c2c(-c3ccc(C#N)c(F)c3)nc(N(C)C[C@H]3CCNC3)n(C)c2=O)cc1 [Example 54, 2-fluoro-4-[5-(4-methoxy-phenyl)-1-methyl-2-(methyl-(3S)-pyrrolidin-3-ylmethyl-amino)-6-oxo-1,6-dihydro-pyrimidin-4-yl]-benzonitrile] | < 100 nM | < 100 nM |
| COc1ccc(-c2c(-c3ccc(C#N)c(F)c3)nc(N(C)C[C@@H]3CCNC3)n(C)c2=O)cc1 (stereo in doubt) [Example 56, 2-fluoro-4-[5-(4-methoxy-phenyl)-1-methyl-2-(methyl-pyrrolidin-3-ylmethyl-amino)-6-oxo-1,6-dihydro-pyrimidin-4-yl]-benzonitrile] | < 100 nM | < 100 nM |
| Cn1c(N2CCC(N)CC2)nc(-c2ccc(C#N)c(F)c2)c(-c2ccc(N3CCCC3)nc2)c1=O [Example 60, 4-[2-(4-amino-piperidin-1-yl)-1-methyl-6-oxo-5-(6-pyrrolidin-1-yl-pyridin-3-yl)-1,6-dihydro-pyrimidin-4-yl]-2-fluoro-benzonitrile] | < 100 nM | < 100 nM |
| CN(C)c1ccc(-c2c(-c3ccc(C#N)c(F)c3)nc(N3CCCNCC3)n(C)c2=O)cn1 [Example 63, 4-[2-[1,4]diazepan-1-yl-5-(6-dimethylamino-pyridin-3-yl)-1-methyl-6-oxo-1,6-dihydro-pyrimidin-4-yl]-2-fluoro-benzonitrile] | < 100 nM | < 100 nM |
| Cn1c(N2CCC(N)CC2)nc(-c2ccc(C#N)c(F)c2)c(-c2ccc3occc3c2)c1=O [Example 18, 4-[2-(4-amino-piperidin-1-yl)-5-benzofuran-5-yl-1-methyl-6-oxo-1,6-dihydro-pyrimidin-4-yl]-2-fluoro-benzonitrile] | < 100 nM | < 100 nM |
| CNC(=O)c1ccc(-c2c(-c3ccc(C#N)c(F)c3)nc(N3CCC(N)CC3)n(C)c2=O)cn1 [Example 50, 5-[2-(4-amino-piperidin-1-yl)-4-(4-cyano-3-fluoro-phenyl)-1-methyl-6-oxo-1,6-dihydro-pyrimidin-5-yl]-pyridine-2-carboxylic acid methylamide] | < 100 nM | < 100 nM |
| CNC1CCN(c2nc(-c3ccc(C#N)c(F)c3)c(-c3ccc(OC)c(F)c3)c(=O)n2C)CC1 [Example 12, 2-fluoro-4-[5-(3-fluoro-4-methoxy-phenyl)-1-methyl-2-(4-methylamino-piperidin-1-yl)-6-oxo-1,6-dihydro-pyrimidin-4-yl]-benzonitrile] | < 100 nM | < 100 nM |
| COc1c(F)cc(-c2c(-c3ccc(C#N)cc3)nc(N3CCC(N)CC3)n(C)c2=O)cc1F [Example 38, 4-[2-(4-aminopiperidyl)-5-(3,5-difluoro-4-methoxyphenyl)-1-methyl-6-oxohydropyrimidin-4-yl]benzenecarbonitrile] | < 100 nM | < 100 nM |

Continued, values first:

| IC50 [1] | IC50 [2] | Structure (SMILES) |
| --- | --- | --- |
| < 100 nM | < 100 nM | CNC1CCN(c2nc(-c3ccc(C#N)c(F)c3)c(-c3ccc(OC)nc3)c(=O)n2C)CC1 [Example 58, 2-fluoro-4-[5-(6-methoxy-pyridin-3-yl)-1-methyl-2-(4-methylamino-piperidin-1-yl)-6-oxo-1,6-dihydro-pyrimidin-4-yl]-benzonitrile] |
| < 100 nM | < 100 nM | Cn1c(N2CCC(N)CC2)nc(-c2ccc(C#N)c(F)c2)c(-c2ccc(CCO)cc2)c1=O [Example 99, 4-[2-(4-aminopiperidin-1-yl)-5-[4-(2-hydroxyethyl)phenyl]-1-methyl-6-oxopyrimidin-4-yl]-2-fluorobenzonitrile] |
| < 100 nM | < 100 nM | COCc1ccc(-c2c(-c3ccc(C#N)c(F)c3)nc(N3CCC(N)CC3)n(C)c2=O)cc1 [Example 107, 4-[2-(4-aminopiperidin-1-yl)-5-[4-(methoxymethyl)phenyl]-1-methyl-6-oxopyrimidin-4-yl]-2-fluorobenzonitrile] |
| < 100 nM | < 100 nM | CNc1ccc(-c2c(-c3ccc(C#N)c(F)c3)nc(N3CCC(N)CC3)n(C)c2=O)cc1 [Example 90, 4-[2-(4-aminopiperidin-1-yl)-1-methyl-5-[4-(methylamino)phenyl]-6-oxopyrimidin-4-yl]-2-fluorobenzonitrile] |
| < 100 nM | < 100 nM | Cn1c(N2CCC(N)CC2)nc(-c2ccc(C#N)c(F)c2)c(-c2ccc(CO)cc2)c1=O [Example 100, 4-[2-(4-aminopiperidin-1-yl)-5-[4-(hydroxymethyl)phenyl]-1-methyl-6-oxopyrimidin-4-yl]-2-fluorobenzonitrile] |
| < 100 nM | < 100 nM | Cn1c(N2CCC(N)CC2)nc(-c2ccc(C#N)c(F)c2)c(-c2ccc(N3CCOCC3)nc2)c1=O [Example 68, 4-[2-(4-amino-piperidin-1-yl)-1-methyl-5-(6-morpholin-4-yl-pyridin-3-yl)-6-oxo-1,6-dihydro-pyrimidin-4-yl]-2-fluoro-benzonitrile] |
| < 100 nM | < 100 nM | CNC1CCN(c2nc(-c3ccc(C#N)c(F)c3)c(-c3ccc(OC)cc3)c(=O)n2C)CC1 [Example 11, 2-fluoro-4-[5-(4-methoxy-phenyl)-1-methyl-2-(4-methylamino-piperidin-1-yl)-6-oxo-1,6-dihydro-pyrimidin-4-yl]-benzonitrile] |
| < 100 nM | < 100 nM | CCOc1ncc(-c2c(-c3ccc(C#N)c(F)c3)nc(N3CCC(N)CC3)n(C)c2=O)cc1F [Example 93, 4-[2-(4-aminopiperidin-1-yl)-5-(6-ethoxy-5-fluoropyridin-3-yl)-1-methyl-6-oxopyrimidin-4-yl]-2-fluorobenzonitrile] |
| < 100 nM | < 100 nM | CN(C)c1ccc(-c2c(-c3ccc(C#N)cc3)nc(N3CCCNCC3)n(C)c2=O)cn1 [Example 67, 4-[2-[1,4]diazepan-1-yl-5-(6-dimethylamino-pyridin-3-yl)-1-methyl-6-oxo-1,6-dihydro-pyrimidin-4-yl]-benzonitrile] |
| < 100 nM | < 100 nM | COc1ccc(-c2c(-c3ccc(C#N)c(F)c3)nc(N3CCC[C@H](N)C3)n(C)c2=O)cc1 [Example 31, 4-[2-((3S)-3-amino-piperidin-1-yl)-5-(4-methoxy-phenyl)-1-methyl-6-oxo-1,6-dihydro-pyrimidin-4-yl]-2-fluoro-benzonitrile] |
| < 100 nM | < 100 nM | COc1ccc(-c2c(-c3ccc(C#N)c(F)c3)nc(N3CC[C@H](N)[C@H](F)C3)n(C)c2=O)cc1 [Example 79, 4-[2-((4S, 3R)-4-amino-3-fluoro-piperidin-1-yl)-5-(4-methoxy-phenyl)-1-methyl-6-oxo-1,6-dihydro-pyrimidin-4-yl]-2-fluoro-benzonitrile] |
| < 100 nM | < 100 nM | CN(C)c1ccc(-c2c(-c3ccc(C#N)c(F)c3)nc(N3CCC(N)CC3)n(C)c2=O)cn1 [Example 57, 4-[2-(4-amino-piperidin-1-yl)-5-(6-dimethylamino-pyridin-3-yl)-1-methyl-6-oxo-1,6-dihydro-pyrimidin-4-yl]-2-fluoro-benzonitrile] |
| < 100 nM | < 100 nM | COc1ccc(-c2c(-c3ccc(C#N)c(F)c3)nc(N3CCCNCC3)n(C)c2=O)cc1F [Example 46, 4-[2-[1,4]diazepan-1-yl-5-(3-fluoro-4-methoxy-phenyl)-1-methyl-6-oxo-1,6-dihydro-pyrimidin-4-yl]-2-fluoro-benzonitrile] |
